Data as given in patent US20240091267A1, “PRE-TREATMENT OF MSC WITH PPARB/DELTA AGONIST FOR TREATMENT OF ISCHEMIA-REPERFUSION INJURY” (Universite de Montpellier, priority 2020, published 2024).

How the values were obtained:
[1] = system: isolated perfused hearts from C57B16 mice; test: Ex vivo Langendorff ischemia-reperfusion, infarct size, effect of preconditioning duration (Example 3); parameters: species or system mouse (C57BL/6); conditions: MSC preconditioned 24 h with 1 μM, 5,000 cells/ml, vs IR
[2] = system: C57B16 mouse hearts subjected to IR injury; test: Ex vivo Langendorff ischemia-reperfusion, infarct size (Example 2, naive or pretreated MSC); parameters: species or system mouse (C57BL/6J); conditions: MSC 2,500 cells/mL (3.10^5 MSC) pretreated 24 h with GW0742 1 μM; mean±SD

`Cc1cc(SCc2sc(-c3ccc(C(F)(F)F)c(F)c3)nc2C)ccc1OCC(=O)O` [GW0742] was tested, and the “Decrease in infarct size” value [1] was 54.6% and the Infarct size [2] was “same cardioprotective effect”.
